Data published in a melting point compilation (Tetko et al.; mined from patent text by program, amines drawn as free bases though some values may be those of a salt).

SMILES | melting point [°C]
CCOCc1nc2c(N)nc3cc(-c4ccccc4)ccc3c2n1CC1CCNCC1 | 142 to 143
O=c1[nH]c(=O)n(-c2ccccc2)n1-c1ccccc1 | 216 to 217
N#CC1(c2ccccc2)CCC(O)CC1 (stereo not drawn) | 103 to 111
CC(=O)SCSc1ncn(C(c2ccccc2)(c2ccccc2)c2ccccc2)n1 | 124 to 125
Cc1ccc(S(=O)(=O)CNC=O)cc1 | 103 to 107
CC1(C)CC(=O)C(S(=O)(=O)Cc2ccccc2)=C(O)C1 | 87 to 89
Cc1cccc(C)c1CNc1cc(C(=O)NN)cc2c1nc(C)n2C | 277 to 278
COc1cc2c(cc1OC)C(C#N)N(C(=O)c1ccccc1)C=C2 (stereo not drawn) | 155 to 157
CC1(CCl)Oc2ccc([N+](=O)[O-])cc2O1 (stereo not drawn) | 72 to 73
Cc1ccccc1Sc1cccc(C(C)C(=O)O)c1O (stereo not drawn) | 123 to 125
Cc1ccc(C(=O)N2CCC3(CC2)OCCO3)cc1 | 59 to 61
COc1cc(OC)nc(NC(=O)NS(=O)(=O)c2ccccc2CS(=O)(=O)N(C)C)n1 | 172 to 176
COc1cc(COc2nn(-c3ccccc3)cc2/C=C/c2cncn2C)ccc1OCc1nc(-c2ccco2)oc1C | 144 to 145
CN1CCC2(CC1)NC(=O)N(c1ccc(C#N)c(C(F)(F)F)c1)C2=O | 188 to 189
Cc1ccc(S(=O)(=O)O[C@@H]2C[C@@H](C(=O)NC(C)(C)C)N(C(=O)OC(C)(C)C)C2)cc1 | 125 to 127
CN(C)CCOc1ccc2c(c1)OCC21C(=O)Nc2ccccc21 (stereo not drawn) | 95 to 97
CNC1(c2ccccc2Cl)C(=O)Nc2c(F)cc(Cl)cc21 (stereo not drawn) | 219
N#Cc1ccc2cc(-c3ccc(O)cc3)oc2c1 | 272 to 274
N#Cc1ccc(-c2cccc(OC3SCC(O)C(O)C3O)c2)cn1 (stereo not drawn) | 179
O=C(O)C1(c2ccc3c(c2)CCCC3)CCC1 | 123 to 126
CCOC(=O)COc1ccc(Oc2ccc([N+](=O)[O-])cc2)c(Cl)c1Cl | 90 to 91
COc1ccc(C2(C#Cc3ccnc(S(C)(=O)=O)n3)CCC(=O)CC2)cc1OC1CCCC1 | 60 to 64
COCCNC(=O)c1cccc(-c2cccc3cc(Cc4cc(Cl)cc(Cl)c4)sc23)c1 | 109 to 110

SMILES | melting point [°C]
CN(C(=O)OC[C@@]1(C)Cn2cc([N+](=O)[O-])nc2O1)c1ccc(Cl)cc1 | 131 to 133
O=C(Nc1ccc(C(=O)N2Cc3ccccc3Cc3ccccc32)cc1)C1CC=CCC1 (stereo not drawn) | 234 to 236
O=C1NC(=O)C(C2CCc3cc(O)ccc32)S1 (stereo not drawn) | 108 to 112
CCCCN(CCCC)CCCOc1ccc(-c2cn3cccc(C)c3n2)cc1C | 63 to 66
CC(=O)[NH+]([O-])C[C@@H]1CN(c2ccc(N3CCN(S(=O)(=O)c4ccccc4C#N)CC3)c(F)c2)C(=O)O1 (stereo partly drawn) | 190 to 192
CCC(OC(=O)CCNC(=O)OC(C)(C)C)c1cc2n(c(=O)c1C)Cc1cc3ccccc3nc1-2 (stereo not drawn) | 155 to 158
CCOC(=O)Cc1ccc(CCN2CCN(C(=O)C=Cc3cc(C(C)(C)C)c(O)c(C(C)(C)C)c3)CC2)cc1 | 111 to 113
Oc1c(Cl)nc(-c2ccccc2)nc1Cl | 138 to 140
CC(=O)Nc1ccc(S(=O)(=O)Nc2nnc(S(N)(=O)=O)s2)cc1 | 280 to 281
COC(=O)CCNC(=O)c1ccc2c(c1)nc(-c1ccc(C(=N)N)cc1)n2CCC(c1ccccc1)c1ccccc1 | > 200
CCC(=O)c1ccccc1CS(=O)(=O)NC(=O)Nc1nc(OC)cc(OC)n1 | 155 to 158
NC(=O)NC(=S)NC(=O)c1ccc(Cl)cc1 | 155 to 158
COC(=O)C1CN(C(C)=O)c2ccccc2CN1S(=O)(=O)c1ccc(OC)cc1 (stereo not drawn) | 150 to 155
O=C1c2ccccc2C(=O)N1OC1C=CCCC1 (stereo not drawn) | 87
COC(C)(C)C#Cc1ncn2c1CN(C)C(=O)c1ccccc1-2 | 136 to 137
COc1cccc(Cn2cc3c(-c4cccc(C(=O)NCCC#N)c4)cccc3n2)n1 | 145 to 146
CNCc1cc2c(=O)c(C(=O)NCc3ccc(Cl)cc3)cn(C)c2s1 | 196 to 199
CNC(=O)ON=CC=NOC(C)=O | 138
CCCc1c(OCCCOc2ccccc2)ccc2c1OC(CCC(=O)OC)(CCC(=O)OC)CC2=O | 100
COc1ccc(Cc2ccc3c(c2)OCO3)c(OC)c1 | 51
C=C[C@@]12CCC[C@@H](C#N)[C@@H]1C(=O)CC2 | 41 to 42
COc1ccc(C(=O)NC(=O)Nc2cc3c(cc2F)/C(=C/c2ccc[nH]2)C(=O)N3)cc1 | 290 to 295
CNC(=O)c1cccc(NC(=O)CCc2ccc(O)cc2)c1 | 158

SMILES | melting point [°C]
c1ccc2c(c1)Cn1cccc1CN2 | 145 to 148
CC(C)(C)C1=C(CO)N=NC1=O | 169 to 172
NS(=O)(=O)c1ccc(-c2c(-c3ccccc3)[nH]c3ccccc23)cc1 | 223 to 225
O=c1c(C2=CS(=O)(=O)c3cc(NS(=O)(=O)C4CC4)ccc3N2)c(O)c2cc(F)ccc2n1CCC1CC1 | 145 to 155
CCN(CC)S(=O)(=O)c1ccc2c(c1)C(C(Cl)(Cl)Cl)OC(C(Cl)(Cl)Cl)O2 (stereo not drawn) | 125 to 126
Cc1cn(S(=O)(=O)c2ccccc2)c2ccccc12 | 116 to 120
CON1C(C)(C)CC(OC(=O)CCc2cc(-n3nc4ccc(Cl)cc4n3)c(O)c(C(C)(C)C)c2)CC1(C)C | 132 to 137
Cc1cc(-c2ccc(Cl)cc2)cn2c(-c3nc(-c4ccc(S(N)(=O)=O)cc4)no3)cnc12 | 311
COc1cc2c(cc1OC)-c1c(-c3nc(C)no3)c(-c3cc(C)c(O)c(C)c3)c(C)n1CC2 | 218 to 221
O=C(Cc1ccc2[nH]cc(CCN3C(=O)c4ccccc4C3=O)c2c1)NCc1ccccc1 | 165 to 166
ClCc1coc(C=C2c3ccccc3-c3ccccc32)n1 | 175 to 176
C=CC(=O)Oc1c(C(C)c2cc(C(C)(C)C)cc(C(C)(C)C)c2O)cc(C(C)(C)C)cc1C(C)(C)C (stereo not drawn) | 190 to 192
CCCCc1oc2ccccc2c1C(=O)N(Cc1ccccc1)Cc1ccc(-c2ccc(OC)c(Br)c2)cc1 | 145 to 148
OCC1COC2(CC(c3ccccc3)SC(c3ccccc3)C2)O1 (stereo not drawn) | 116 to 118
O=C1N(Cc2cccc(OC(F)(F)F)c2)c2ccccc2C12COc1cc3c(cc12)OCO3 (stereo not drawn) | 88 to 91
Oc1ccc2c(c1)C(Cc1ccnc(F)c1)(Cc1ccnc(F)c1)c1ccccc1-2 | 200 to 201
CCCc1ccccc1OCCCOc1ccc2c(=O)cc(C(=O)O)oc2c1CC | 198 to 199
COc1cc(COc2cc(C(=O)O)n(-c3ccccc3)n2)ccc1OCc1nc(-c2ccccc2)oc1C | 192 to 193
O=C(O)CN(C(=O)CCS)[C@H]1CC[C@H](c2ccccc2)CC1 | 125 to 130
O=C1N(Cc2cc3ccccc3o2)c2ccccc2C12COc1cc3c(cc12)OCO3 (stereo not drawn) | 167 to 168
CCCCCCC(C)Oc1cc(O)c2c(C)c(CCC(=O)OCC)c(=O)oc2c1 (stereo not drawn) | 116 to 117
c1ccc2oc(SSCCSSc3nc4ccccc4o3)nc2c1 | 124 to 125
